EPA's ToxRefDB 2

Key:
[1] = system: dog; settings: Subchronic oral toxicity in nonrodent, beagle, Feed, dose end: 13 week, group: systemic
[2] = system: rat; settings: Subchronic oral toxicity in rodents, other, Feed, dose end: 90 day, group: systemic
[3] = system: mouse; settings: Prenatal developmental toxicity study, cd1, Oral, Gavage/Intubation, dose end: 14 GD
[4] = system: mouse; settings: Subchronic oral toxicity in rodents, cd1, Feed, dose end: 90 day, group: systemic
[5] = system: rat; settings: Subchronic oral toxicity in rodents, wistar, Feed, dose end: 90 day, group: systemic, systemic / in life observation / body weight / body weight + systemic / in life observation / food consumption / food consumption + systemic…
[6] = system: dog; settings: Chronic toxicity; beagle; Oral; Capsule; dose end: 12 month; group: cholinesterase; cholinesterase / cholinesterase / cholinesterase / plasma cholinesterase (che)
[7] = system: mouse; settings: Carcinogenicity, cd1, Oral, Feed, dose end: 18 month, group: systemic
[8] = system: mouse; settings: Subchronic oral toxicity in rodents, cd1, Feed, dose end: 13 week, group: systemic
[9] = system: dog; settings: Subchronic oral toxicity in nonrodent, beagle, Feed, dose end: 13 week, group: systemic; remark: listed apart in the source
[10] = system: rat; settings: Combined chronic toxicity/carcinogenicity, sprague dawley, Oral, Feed, dose end: 24 month, group: systemic
[11] = system: rat; settings: Multigenerational reproductive toxicity study, sprague dawley, Oral, Feed, dose end: 2 generation
[12] = system: rat; settings: Prenatal developmental toxicity study, sprague dawley, Oral, Gavage/Intubation, dose end: 15 GD
[13] = system: mouse; settings: Carcinogenicity, cd1, Oral, Feed, dose end: 18 month, group: systemic; remark: listed apart in the source
[14] = system: rat; settings: Subchronic oral toxicity in rodents, sprague dawley, Feed, dose end: 90 day, group: systemic
[15] = system: dog; settings: Chronic toxicity, beagle, Oral, Feed, dose end: 52 week, group: systemic
[16] = system: rat; settings: Prenatal developmental toxicity study, wistar, Oral, Gavage/Intubation, dose end: 15 GD
[17] = system: rat; settings: Multigenerational reproductive toxicity study, sprague dawley, Oral, Feed, dose end: 2 generation; remark: listed apart in the source
[18] = system: rat; settings: Subchronic oral toxicity in rodents, fischer, Feed, dose end: 13 week, group: systemic
[19] = system: rat; settings: Carcinogenicity; fischer; Oral; Water; dose end: 104 week; group: systemic; systemic / in life observation / water consumption / water consumption
[20] = system: mouse; settings: Multigenerational reproductive toxicity study, other, Oral, Feed, dose end: 1 generation
[21] = systemic / in life observation / body weight / body weight + systemic / in life observation / food consumption / food consumption + systemic…
[22] = systemic / in life observation / food consumption / food consumption
[23] = systemic / in life observation / food consumption / food consumption + systemic / in life observation / body weight / body weight + systemic…
[24] = group: developmental, systemic / in life observation / body weight / offspring (pup) weight
[25] = group: maternal, systemic / in life observation / mortality / mortality
[26] = systemic / in life observation / body weight / body weight gain + systemic / organ weight / heart / relative to body weight + systemic / …
[27] = systemic / in life observation / body weight / body weight gain
[28] = systemic / clinical chemistry / 5' nucleotidase / 5' nucleotidase + systemic / clinical chemistry / alkaline phosphatase (alp/alk) / …
[29] = systemic / in life observation / clinical signs / defecation (diarrhea)
[30] = systemic / in life observation / clinical signs / defecation (diarrhea) + systemic / clinical chemistry / alpha-1 globulin / alpha-1 …
[31] = systemic / in life observation / body weight / body weight + systemic / in life observation / body weight / body weight gain + systemic / …
[32] = group: offspring, systemic / in life observation / body weight / offspring (pup) weight + systemic / in life observation / body weight / offspring (pup) …
[33] = group: parental, systemic / in life observation / clinical signs / anogenital staining
[34] = group: parental, systemic / in life observation / clinical signs / anogenital staining + systemic / in life observation / body weight / body weight + …
[35] = group: developmental, developmental / developmental malformation / kidney / dilated renal pelvis + developmental / developmental malformation / ureter / dilated
[36] = group: maternal, systemic / in life observation / body weight / body weight gain + systemic / in life observation / food consumption / food consumption
[37] = systemic / in life observation / body weight / body weight gain + systemic / clinical chemistry / alkaline phosphatase (alp/alk) / alkaline …
[38] = group: developmental, systemic / in life observation / body weight / fetal weight + developmental / developmental malformation / mouth / jaw / cleft palate
[39] = group: maternal, reproductive / reproductive performance / postimplantation loss / postimplantation loss + reproductive / reproductive performance / …
[40] = group: offspring, developmental / developmental malformation / testes / delayed descent + developmental / developmental landmark / preputial separation / …
[41] = group: parental, systemic / in life observation / body weight / body weight + systemic / organ weight / adrenal gland / relative to body weight + systemic / …
[42] = group: reproductive, reproductive / reproductive performance / estrous cycle / periodicity + reproductive / reproductive performance / fertility / fertility
[43] = systemic / clinical chemistry / albumin / albumin + systemic / clinical chemistry / triglycerides / triglycerides
[44] = systemic / clinical chemistry / alkaline phosphatase (alp/alk) / alkaline phosphatase (alp/alk) + systemic / clinical chemistry / bile acids…
[45] = group: offspring, systemic / in life observation / body weight / litter weight + systemic / in life observation / body weight / offspring (pup) weight + …
[46] = group: reproductive, reproductive / reproductive performance / mating / mating + reproductive / reproductive performance / estrous cycle / length + reproductive…

Cn1sccc1=O [2-Methyl-3(2H)-isothiazolone]
LOAEL ([1]; systemic / in life observation / body weight / body weight + systemic / in life observation / food consumption / food consumption): 40.6 mg/kg/day
LEL [1, 21]: 40.6 mg/kg/day
NEL [1, 21]: 9.9 mg/kg/day
NOAEL [1, 21]: 9.9 mg/kg/day

CCOCCOCCO [2-(2-Ethoxyethoxy)ethanol]
LEL [2, 22]: 250 mg/kg/day
NEL [2, 22]: < 250 mg/kg/day
LOAEL [2, 23]: > 2500 mg/kg/day
NOAEL [2, 23]: ≥ 2500 mg/kg/day
LEL [3, 24]: 5500 mg/kg/day
LOAEL [3, 24]: > 5500 mg/kg/day
NEL [3, 24]: < 5500 mg/kg/day
NOAEL [3, 24]: ≥ 5500 mg/kg/day
LEL [3, 25]: 5500 mg/kg/day
LOAEL [3, 25]: > 5500 mg/kg/day
NEL [3, 25]: < 5500 mg/kg/day
NOAEL [3, 25]: ≥ 5500 mg/kg/day
LOAEL [4, 26]: > 8100 mg/kg/day
NEL [4, 26]: 900 mg/kg/day
NOAEL [4, 26]: ≥ 8100 mg/kg/day
LEL ([4]; systemic / in life observation / body weight / body weight gain + systemic / organ weight / kidney / relative to body weight): 2700 mg/kg/day
LEL [5]: 2500 mg/kg/day
LOAEL [5]: > 2500 mg/kg/day
NEL [5]: 500 mg/kg/day
NOAEL [5]: ≥ 2500 mg/kg/day

CCOP(=S)(OCC)SCSC(C)(C)C [Terbufos]
LEL [6]: 0.015 mg/kg/day
LOAEL [6]: 0.015 mg/kg/day
NEL [6]: < 0.015 mg/kg/day
NOAEL [6]: < 0.015 mg/kg/day

N#Cc1c[nH]cc1-c1cccc2c1OC(F)(F)O2 [Fludioxonil]
LEL [7, 27]: 1.1 mg/kg/day
NEL [7, 27]: < 1.1 mg/kg/day
NOAEL ([7]; systemic / in life observation / body weight / body weight gain + systemic / in life observation / clinical signs / convulsions + systemic…): 11.3 mg/kg/day
LOAEL ([7]; systemic / in life observation / clinical signs / convulsions + systemic / in life observation / clinical signs / urine, discoloration + …): 112 mg/kg/day
LOAEL [8, 28]: 1050 mg/kg/day
NOAEL [8, 28]: 445 mg/kg/day
LEL ([8]; systemic / organ weight / liver / relative to body weight + systemic / pathology microscopic / liver / hypertrophy): 559 mg/kg/day
NEL ([8]; systemic / organ weight / liver / relative to body weight + systemic / pathology microscopic / liver / hypertrophy + systemic / clinical …): 178 mg/kg/day
LEL [9, 29]: 50 mg/kg/day
LOAEL [9, 29]: 50 mg/kg/day
NEL [9, 30]: 5 mg/kg/day
NOAEL [9, 30]: 5 mg/kg/day
LOAEL [10, 31]: 113 mg/kg/day
NEL [10, 31]: 3.7 mg/kg/day
NOAEL [10, 31]: 37 mg/kg/day
LEL ([10]; systemic / in life observation / clinical signs / body surface staining + systemic / in life observation / clinical signs / feces, …): 37 mg/kg/day
LOAEL ([11]; group: offspring, systemic / in life observation / body weight / offspring (pup) weight): 222 mg/kg/day
LEL [11, 32]: 222 mg/kg/day
NEL [11, 32]: 22.1 mg/kg/day
NOAEL [11, 32]: 22.1 mg/kg/day
NEL [11, 33]: 22.1 mg/kg/day
NOAEL [11, 33]: 22.1 mg/kg/day
LEL [11, 34]: 222 mg/kg/day
LOAEL [11, 34]: 222 mg/kg/day
LOAEL [12, 35]: 1000 mg/kg/day
NEL [12, 35]: 10 mg/kg/day
NOAEL [12, 35]: 100 mg/kg/day
LEL ([12]; group: developmental, developmental / developmental malformation / ureter / dilated): 100 mg/kg/day
LOAEL ([12]; group: maternal, systemic / in life observation / body weight / body weight gain): 1000 mg/kg/day
LEL [12, 36]: 1000 mg/kg/day
NEL [12, 36]: 100 mg/kg/day
NOAEL [12, 36]: 100 mg/kg/day
NEL ([13]; systemic / organ weight / heart / absolute + systemic / organ weight / kidney / absolute + systemic / organ weight / liver / relative to …): 3.3 mg/kg/day
LOAEL ([13]; systemic / pathology microscopic / kidney / nephropathy): 590 mg/kg/day
NOAEL ([13]; systemic / pathology microscopic / kidney / nephropathy + systemic / hematology / hematocrit (hct) / hematocrit (hct) + systemic / …): 3.3 mg/kg/day
LEL ([13]; systemic / pathology microscopic / kidney / nephropathy + systemic / hematology / hemoglobin (hgb) / hemoglobin (hgb) + systemic / …): 590 mg/kg/day
LOAEL ([14]; systemic / in life observation / body weight / body weight gain + systemic / pathology microscopic / kidney / nephropathy): 428 mg/kg/day
NOAEL ([14]; systemic / in life observation / body weight / body weight gain + systemic / pathology microscopic / kidney / nephropathy + systemic / …): 64 mg/kg/day
LEL ([14]; systemic / organ weight / thymus / relative to body weight): 70 mg/kg/day
NEL ([14]; systemic / organ weight / thymus / relative to body weight + systemic / clinical chemistry / alkaline phosphatase (alp/alk) / alkaline …): 7.1 mg/kg/day
LEL [15, 27]: 35.5 mg/kg/day
LOAEL [15, 27]: 35.5 mg/kg/day
NEL [15, 37]: 3.3 mg/kg/day
NOAEL [15, 37]: 3.3 mg/kg/day

CCCCOC(=O)c1ccccc1C(=O)OCCCC [Dibutyl phthalate]
LOAEL ([16]; group: developmental, systemic / in life observation / body weight / fetal weight): 630 mg/kg/day
LEL [16, 38]: 630 mg/kg/day
NEL [16, 38]: 500 mg/kg/day
NOAEL [16, 38]: 500 mg/kg/day
LEL [16, 39]: 630 mg/kg/day
LOAEL [16, 39]: 630 mg/kg/day
NEL [16, 39]: 500 mg/kg/day
NOAEL [16, 39]: 500 mg/kg/day
LEL [17, 40]: 531 mg/kg/day
LOAEL [17, 40]: > 531 mg/kg/day
NEL [17, 40]: 51.8 mg/kg/day
NOAEL [17, 40]: ≥ 531 mg/kg/day
LOAEL [17, 41]: > 531 mg/kg/day
NEL [17, 41]: 1.61 mg/kg/day
NOAEL [17, 41]: ≥ 531 mg/kg/day
LEL ([17]; group: parental, systemic / organ weight / adrenal gland / relative to body weight): 5.35 mg/kg/day
LEL ([17]; group: reproductive, reproductive / reproductive performance / estrous cycle / periodicity): 95.3 mg/kg/day
LOAEL [17, 42]: > 1020 mg/kg/day
NEL [17, 42]: 9.24 mg/kg/day
NOAEL [17, 42]: ≥ 1020 mg/kg/day
LEL [18, 43]: 125 mg/kg/day
NEL [18, 43]: < 125 mg/kg/day
LOAEL [18, 44]: > 2000 mg/kg/day
NOAEL [18, 44]: ≥ 2000 mg/kg/day

O=C(OC[C@H]1O[C@@H](OC(=O)c2cc(O)c(O)c(OC(=O)c3cc(O)c(O)c(O)c3)c2)[C@H](OC(=O)c2cc(O)c(O)c(OC(=O)c3cc(O)c(O)c(O)c3)c2)[C@@H](OC(=O)c2cc(O)c(O)c(OC(=O)c3cc(O)c(O)c(O)c3)c2)[C@@H]1OC(=O)c1cc(O)c(O)c(OC(=O)c2cc(O)c(O)c(O)c2)c1)c1cc(O)c(O)c(OC(=O)c2cc(O)c(O)c(O)c2)c1 [Tannic acid]
LEL [19]: 131 mg/kg/day
LOAEL [19]: > 243 mg/kg/day
NEL [19]: < 131 mg/kg/day
NOAEL [19]: ≥ 243 mg/kg/day
LEL [20, 45]: 12000 mg/kg/day
LOAEL [20, 45]: > 12000 mg/kg/day
NEL [20, 45]: < 12000 mg/kg/day
NOAEL [20, 45]: ≥ 12000 mg/kg/day
LEL [20, 46]: 12000 mg/kg/day
LOAEL [20, 46]: > 12000 mg/kg/day
NEL [20, 46]: < 12000 mg/kg/day
NOAEL [20, 46]: ≥ 12000 mg/kg/day
